Earlier results in patent US20150290158A1, “X-RAY CONTRAST MEDIA COMPOSITIONS AND METHODS OF USING THE SAME TO TREAT, REDUCE OR DELAY THE ONSET OF CNS INFLAMMATION AND INFLAMMATION ASSOCIATED CONDITIONS” (priority 2012, published 2015).
Peptide text beside a SMILES is read from it.

What was measured:
TNF-alpha = conditions: in vitro
[1] = system: allergen induced nasal obstruction; conditions: used as a nasal spray, in vivo
mast cell degranulation = conditions: in vitro, immunological and non-immunological stimuli
[2] = target: angiotensin converting enzyme (ACE) (Homo sapiens, UniProt P12821); conditions: compared with commercial iopamidol (contains chelator); from Lasser et al., 1990
Sequence of angiotensin converting enzyme (ACE) (P12821 30-1306, species assumed): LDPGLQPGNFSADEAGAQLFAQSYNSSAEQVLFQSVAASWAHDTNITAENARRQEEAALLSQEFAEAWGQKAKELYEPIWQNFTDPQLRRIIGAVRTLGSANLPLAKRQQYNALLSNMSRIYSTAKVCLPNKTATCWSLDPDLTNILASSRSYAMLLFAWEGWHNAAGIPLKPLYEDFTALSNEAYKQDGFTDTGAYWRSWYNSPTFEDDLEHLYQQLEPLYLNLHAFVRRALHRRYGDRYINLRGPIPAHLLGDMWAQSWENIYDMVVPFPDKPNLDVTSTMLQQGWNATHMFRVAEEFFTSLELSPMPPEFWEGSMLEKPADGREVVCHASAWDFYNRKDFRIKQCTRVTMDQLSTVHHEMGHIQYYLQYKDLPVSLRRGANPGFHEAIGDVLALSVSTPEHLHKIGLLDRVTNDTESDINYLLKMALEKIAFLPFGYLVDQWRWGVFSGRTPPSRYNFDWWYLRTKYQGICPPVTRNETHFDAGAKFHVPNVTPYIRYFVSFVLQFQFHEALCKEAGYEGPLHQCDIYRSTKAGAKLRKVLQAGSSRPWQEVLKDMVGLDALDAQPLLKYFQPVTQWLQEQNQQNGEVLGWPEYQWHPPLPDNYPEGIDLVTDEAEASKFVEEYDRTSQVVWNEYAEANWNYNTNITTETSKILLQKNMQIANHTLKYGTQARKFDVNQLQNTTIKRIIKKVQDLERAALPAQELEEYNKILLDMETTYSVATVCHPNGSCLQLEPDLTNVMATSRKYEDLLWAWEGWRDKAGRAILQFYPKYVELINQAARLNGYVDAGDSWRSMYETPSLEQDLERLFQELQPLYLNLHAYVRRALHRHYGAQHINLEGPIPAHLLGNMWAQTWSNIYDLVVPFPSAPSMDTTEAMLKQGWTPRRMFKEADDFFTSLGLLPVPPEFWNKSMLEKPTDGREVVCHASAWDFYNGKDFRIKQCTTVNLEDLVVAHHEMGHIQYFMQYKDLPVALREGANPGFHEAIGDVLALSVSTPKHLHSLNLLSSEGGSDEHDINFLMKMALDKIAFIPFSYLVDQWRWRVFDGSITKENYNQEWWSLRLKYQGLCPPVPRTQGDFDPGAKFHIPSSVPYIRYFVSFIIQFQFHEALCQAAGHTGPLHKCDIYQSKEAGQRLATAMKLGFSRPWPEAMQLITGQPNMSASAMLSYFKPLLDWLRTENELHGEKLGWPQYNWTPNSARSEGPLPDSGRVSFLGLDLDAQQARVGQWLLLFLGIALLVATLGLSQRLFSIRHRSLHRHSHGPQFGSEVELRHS

O=C(O)c1cc(=O)c2c(OCC(O)COc3cccc4oc(C(=O)O)cc(=O)c34)cccc2o1 [Sodium cromoglycate]
inhibition of TNF-alpha (TNF-alpha): inhibited TNF-alpha in vitro

CC(=O)N[C@@H](CC(=O)[O-])C(=O)N[C@@H](CCC(=O)[O-])C(=O)O.[Mg+2] [magnesium salt of n-acetyl aspartyl glutamic acid] (Ac-Asp-Glu-OH)
allergen induced nasal obstruction [1]: reduce allergen induced nasal obstruction | mast cell degranulation (mast cell degranulation): inhibit mast cell degranulation

CCCc1c2oc(C(=O)[O-])cc(=O)c2cc2c(=O)cc(C(=O)[O-])n(CC)c12.[Na+].[Na+] [nedocrimal sodium]
inhibition of TNF-alpha (TNF-alpha): inhibited TNF-alpha in vitro

C[C@H](O)C(=O)Nc1c(I)c(C(=O)NC(CO)CO)c(I)c(C(=O)NC(CO)CO)c1I [purified iopamidol, iopamidol]
inhibition of ACE [2]: diminishes the inhibition ACE significantly
